According to patent US20040208859A1, “Bile acid absorbent/adsorbent” (priority 2001, published 2004):

What was measured:
Format in all cases: cell-based
[1] = system: Bifidobacterium infantis strain JCM1222; experiment: cholic acid uptake by Bifidobacterium infantis strain JCM1222 in a nystose added-cell suspension
Description: (§1) Lactic acid bacteria were cultured in a commercially available MRS medium overnight. The composition of the medium was as follows:
(§2) The harvested cells were washed with a buffer (pH 7.0) of 50 mM potassium phosphate containing 1 mM magnesium sulfate, and then the washed cells were re-suspended in a buffer comprising the same composition. The resulting cell suspension was allowed to stand for 30 minutes to make the cell membrane of the cells the state of deactivation. Then, the cells were harvested by centrifuging the suspension and washed with a buffer (pH 7.0) of 50 mM potassium phosphate containing 1 mM magnesium sulfate. […]
(§3) To 96 μl of the cell suspension prepared as above, 2 μl of 6 mM cholic acid solution (cholic acid (chenodeoxycholic acid) labeled with ^14C, 16 mCi/mmol) was added, and after allowing the resulting suspension to stand for 15 minutes, 0.1 μl of 0.33 M oligosaccharide solution was added thereto, and the measurement of the activity of bile acid uptake was started. After a predetermined time, the reaction was stopped by adding 3 ml of a buffer of 100 mM potassium phosphate containing 100 mM […], and then the reaction solution was filtered through a cellulose acetate membrane (pore size: 0.45 μm), and the radioactivity left on the membrane was measured by a scintillation counter. […]

[2] = system: Lactobacillus salivarius ssp. salicinius strain JCM1044; experiment: activity of cholic acid uptake by Lactobacillus salivarius ssp. salicinius strain JCM1044 in the presence of an oligosaccharide; details: 14C-labeled cholic acid; oligosaccharide added at 15 minutes after reaction start; control without oligosaccharide unchanged
Description: as §1, §2, §3

[3] = system: Bifidobacterium breve strain JCM1192; experiment: activity of cholic acid uptake by Bifidobacterium breve strain JCM1192 in the presence of an oligosaccharide; details: 14C-labeled cholic acid; oligosaccharide added at 15 minutes after reaction start; control without oligosaccharide unchanged
Description: as §1, §2, §3

[4] = system: Bifidobacterium breve strain JCM1192; experiment: activity of chenodeoxycholic acid uptake by Bifidobacterium breve strain JCM1192 in the presence of an oligosaccharide; details: for chenodeoxycholic acid concentration in the cells relative to that of the outside of the cells: 14C-labeled chenodeoxycholic acid, oligosaccharide added at 15 minutes after reaction start, maximum rise
Description: as §1
The harvested cells were washed with a buffer (pH 7.0) of 50 mM potassium phosphate containing 1 mM magnesium sulfate, and then the washed cells were re-suspended in a buffer comprising the same composition. The resulting cell suspension was allowed to stand for 30 minutes to make the cell membrane of the cells the state of deactivation. Then, the cells were harvested by centrifuging the suspension and washed with a buffer (pH 7.0) of 50 mM potassium phosphate containing 1 mM magnesium sulfate. Thereafter, the washed cells were re-suspended in a buffer comprising the same composition, and the cell suspension was adjusted so as to have the turbidity of 10.
To 96 μl of the cell suspension prepared as above, 2 μl of 6 mM cholic acid solution (cholic acid (chenodeoxycholic acid) labeled with ^14C, 16 mCi/mmol) was added, and after allowing the resulting suspension to stand for 15 minutes, 0.1 μl of 0.33 M oligosaccharide solution was added thereto, and the measurement of the activity of bile acid uptake was started. After a predetermined time, the reaction was stopped by adding 3 ml of a buffer of 100 mM potassium phosphate containing 100 mM […], and then the reaction solution was filtered through a cellulose acetate membrane (pore size: 0.45 μm), and the radioactivity left on the membrane was measured by a scintillation counter. In addition, as a control, the radioactivity of a sample adding no oligosaccharide was measured similarly.

| SMILES | cholic acid incorporation into the cells [1] | cholic acid concentration in the cells relative to that of the outside of the cells [2] | cholic acid concentration in the cells relative to that of the outside of the cells [3] | chenodeoxycholic acid concentration in the cells relative to that of the outside of the cells [4] | chenodeoxycholic acid concentration in the cells relative to outside at equilibrium after passive elimination ([4]; after oligosaccharide almost consumed (after 30 minutes), concentration came to equilibrium) |
| --- | --- | --- | --- | --- | --- |
| OC[C@H]1O[C@@](CO)(OC[C@@]2(OC[C@@]3(O[C@H]4O[C@H](CO)[C@@H](O)[C@H](O)[C@H]4O)O[C@H](CO)[C@@H](O)[C@@H]3O)O[C@H](CO)[C@@H](O)[C@@H]2O)[C@@H](O)[C@@H]1O [nystose] | cholic acid was incorporated into the cells |  |  |  |  |
| OC[C@H]1O[C@H](OC[C@H]2O[C@H](O[C@]3(CO)O[C@H](CO)[C@@H](O)[C@@H]3O)[C@H](O)[C@@H](O)[C@@H]2O)[C@H](O)[C@@H](O)[C@H]1O [raffinose] |  | about 8 times | about 30 times | about 6 times |  |
| OC[C@H]1O[C@@](CO)(OC[C@@]2(O[C@H]3O[C@H](CO)[C@@H](O)[C@H](O)[C@H]3O)O[C@H](CO)[C@@H](O)[C@@H]2O)[C@@H](O)[C@@H]1O [1-kestose] |  | about 13 times | about 24 times | about 15 times | about 2 times |
